Test system: SARS-CoV-2 169 R
Type: cell-based

| Structure (SMILES) | effect on viral load in 169 R-infected cultures (plaque assay) |
| --- | --- |
| CN1CCN(C[C@H](O)CO[C@H]2CC[C@@]3(C)C(CCC4C3CC[C@]3(C)C(=O)CCC43)C2)CC1 (some centres unmarked) [LNB167] | no reduction in viral load |
| CN1CCN(C[C@@H](O)CO[C@H]2CC[C@@]3(C)C(CCC4C3CC[C@]3(C)C(=O)CCC43)C2)CC1 (some centres unmarked) [LNB169] | no reduction in viral load |
